Assay results from article PMC6832513, “Antimalarial Properties of Dunnione Derivatives as NQO2 Substrates” (Molecules, 2019).
“And” between values parts separate entries of the source, which are not always exact repeats. Identical values can stand only once. “Also recorded” adds a separate entry of the source. Like-named read-outs stand apart in the source and are kept apart here.

What was measured:
[1] = tested on: P. falciparum strain FcB1; assay: In vitro antiplasmodial activity, SYBR Green I-based fluorescence assay; assay type: cell-based, Plasmodium falciparum
Method: The in vitro anti-malarial activity was investigated using the SYBR Green I-based fluorescence assay. The asexual intra-erythrocytic stage of P. falciparum laboratory strain FcB1 (chloroquine-resistant strain) was maintained in RPMI 1640 medium containing l-glutamine 200 µM, Hepes 25 mM and 5% human serum (Etablissement Français du Sang—EFS, Toulouse, France). For anti-malarial drug assays, stock solutions of compounds were diluted serially in RPMI 1640 culture medium to test final concentrations between 0.001 and 1 µg/mL in triplicates in a 96-well plate. The final concentration of DMSO was 0.5%. A suspension of sorbitol-synchronized, infected red blood cells (iRBCs) was adjusted to 1% parasitemia and 2% hematocrit in complete medium and added to the wells. Negative controls were prepared with a suspension of iRBCs and 0.5% DMSO. Chloroquine was used as the positive control. Test plates were incubated at 37 °C for 48 h. Afterwards, 100 μL SYBR Green I fluorescent lysis buffer were added to each well and incubated in a dark place at room temperature for 2 h. Fluorescence data were acquired using a fluorescence plate reader (BMG Fluostar Galaxy Labtech) with excitation and emission wavelengths at 485 nm and 518 nm, respectively. The fluorescence values (after subtraction of the background fluorescence of the non-parasitized RBCs) were plotted against the log of the drug concentration, and analyzed by non-linear regression (sigmoidal dose response/variable slope equation) to yield the IC50 (50% inhibitory concentration) that served as a measure of the anti-malarial activity.

P. chabaudi chabaudi = assay: Four-days suppressive test, P. chabaudi chabaudi mice model (uncomplicated malaria); assay type: in vivo, Plasmodium chabaudi chabaudi in Swiss mice; settings: for Pcc parasite density compared to DMSO treatment: 50 mg/kg intraperitoneal D0 to D3, D8 (peak of parasitemia), p < 0.0001; for weight development at D11 after Pcc infection: 50 mg/kg intraperitoneal D0 to D3, D11; for death after Pcc infection: 50 mg/kg intraperitoneal D0 to D3, monitored 13 days
Method: As previously described, the four-days suppressive standard test described by Knight and Peters was used to evaluate antimalarial activity of Compounds 1 and 3. P. chabaudi chabaudi (Pcc) and P. berghei ANKA (PbA) infections in Swiss mice were used as experimental models for uncomplicated and cerebral malaria, respectively. […] On the first day (D0), mice were inoculated intraperitoneally with 0.2 mL of infected blood containing about 1 × 10^6 parasitized erythrocytes. […] All mice groups were treated similarly for four consecutive days (D0–D3). Weight, parasitemia and survival were followed daily. To follow peripheral parasite density, thin blood smears were made daily from tail blood from D3 to D14. Blood smears were fixed with methanol and stained with a fast-acting variation of the May–Grünwald Giemsa staining (RAL 555 kit, RAL diagnostics). Average percentage chemosuppression was calculated at D8 for both infection models as ((A − B)/A) × 100 where A is the average percentage parasitemia in the negative control group and B is the average percentage parasitemia in the test group. Survival was monitored twice daily. […]

NQO2 = target: T1, NQO2 (Homo sapiens, UniProt P16083); assay: EPR measurement of free radicals (ROS) produced after metabolism by NQO2; assay type: biochemical; settings: for radical production after reduction by NQO2: EPR with DMPO spin trap; for radical production after adding the specific NQO2 inhibitor S29434: S29434 30 µM; for ROS after NQO2 Reduction: purified NQO2 20 µg/mL, compound 125 µM, BNAH 1 mM, DMPO 125 mM, grades - to + + + + +
T1 construct: The experiments were conducted with purified enzyme NQO2 (20 µg/mL)
T1 sequence (P16083 1-231): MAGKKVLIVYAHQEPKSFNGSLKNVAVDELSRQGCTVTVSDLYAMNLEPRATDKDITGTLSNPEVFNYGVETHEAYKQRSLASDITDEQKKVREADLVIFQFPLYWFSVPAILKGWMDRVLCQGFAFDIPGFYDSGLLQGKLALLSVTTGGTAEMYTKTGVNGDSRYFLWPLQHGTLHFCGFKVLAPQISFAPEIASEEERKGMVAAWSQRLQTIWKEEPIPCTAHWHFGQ
Method: As in previous work, we used an indirect assay to characterize the substrates. […] Using the capacity of NQO2 to reduce quinones into hydroquinones or quinols, we incubated the substrate candidates with the enzyme and its co-substrate, a synthetic hydride donor, N-benzyldihydronicotinamide. […] Thus, using an EPR-based assay, it was possible to evaluate the potency of the process by quantifying those bursts by measuring for the presence of free radicals. The rationale of the process was based on the simple idea that such substrates would generate bursts of ROS, which are particularly toxic for infected red cells.
We measured the ability of the selected compounds to produce superoxide radicals during the redox cycle of NQO2 by EPR spectroscopy. The following compounds were used as molecular tools: Menadione (Figure 1) as a reference compound and NQO2 substrate, S29434 as a specific NQO2 inhibitor [17] and dimethyl-pyrroline-N-oxide (DMPO) as a spin trap reagent to characterize ROS.
The experiments were conducted with purified enzyme NQO2 (20 µg/mL), DMPO (125 mM), tested compounds (125 µM) and BNAH (1 mM). For inhibition assays, we added S29434 (30 µM). All analyses were performed at room temperature. EPR spectra were recorded with a Bruker EMX-8/2.7 (9.86 GHz) with a high-sensitivity cavity (4119/HS 0205) and a gaussmeter (Bruker, Wissembourg, France), at X-band. For analyses, we used a flat quartz cell, FZKI160-5 × 0.3 mm (Magnettech, Berlin, Germany). We performed data processing and spectrum acquisition with WINEPR software (Bruker). Scanning parameters were: Number of scans, 5; magnetic field, 3460–3560 G; sweep width, 100 G; scan rate, 1.2 G/s; modulation amplitude, 1 G; sweep time, 83.88 s; time constant, 40.96 ms; modulation frequency, 100 kHz; and microwave power, 20 mW. The EPR spectra were analyzed as reported previously. The EPR spectrum was presented with the magnetic field on the x-axis in gauss (g) and the intensity of the peaks on the y-axis in arbitrary units (a.u.).

[2] = Cytotoxic evaluation on the Hela cell line (MTT assay); assay type: cell-based; settings: human, Hela cells
Method: The evaluation of the tested molecules’ cytotoxicity on the Hela cell line was conducted according to the method of Mosman with slight modifications. Briefly, cells (1 × 10^5 cells/mL) in 100 µL of complete medium, (MEM supplemented with 10% fetal bovine serum, 2 mM L-glutamine and antibiotics (100 U/mL penicillin and 100 µg/mL streptomycin) were seeded into each well of the 96-well plates and incubated at 37 °C and 5% CO2. After a 24 h incubation, 100 µL of medium with various product concentrations and appropriate controls were added and the plates were incubated for 72 h at 37 °C and 5% CO2. Each plate-well was then microscope-examined to detect possible precipitate formation before the medium was aspirated from the wells. MTT solution (100 µL, 0.5 mg/mL in RPMI) was then added to each well. Cells were incubated for 2 h at 37 °C and 5% CO2. After this time, the MTT solution was removed and DMSO (100 µL) was added to dissolve the resulting formazan crystals. Plates were shaken vigorously (300 rpm) for 5 min. The absorbance was measured at 570 nm with a microplate spectrophotometer (Eon BioTek). DMSO was used as blank and doxorubicin (purchased from Sigma Aldrich) as positive control. CC50 were calculated by non-linear regression analysis processed on dose response curves, using TableCurve 2D V5 software (San Jose, CA, USA). CC50 values represent the mean value calculated from three independent experiments.

[3] = Acute toxicity in healthy Swiss mice; assay type: in vivo; settings: for weight variation compared to the vehicle control group: healthy Swiss mice, 50 mg/kg intraperitoneal, Days 7, 14 and 20; for mortality or major behavioral changes: mouse, in vivo, ip, 50 mg/kg
Method: Compounds 1 and 3 were diluted in 50% DMSO and tested at 50 mg/kg. Protocols used for acute oral toxicity measurement were previously described. Briefly, mice were randomly divided into three groups of three mice and treated once a day from D0 to D3 by the intraperitoneal route with 200 µL of Compound 1 or Compound 3 at 50 mg/kg, or DMSO 50%.

P. berghei ANKA = assay: Four-days suppressive test, P. berghei ANKA mice model (cerebral malaria); assay type: in vivo, Plasmodium berghei ANKA in Swiss mice; settings: for survival rate on D10: 50 mg/kg intraperitoneal D0 to D3, D10
Method: As previously described, the four-days suppressive standard test described by Knight and Peters was used to evaluate antimalarial activity of Compounds 1 and 3. P. chabaudi chabaudi (Pcc) and P. berghei ANKA (PbA) infections in Swiss mice were used as experimental models for uncomplicated and cerebral malaria, respectively. […] On the first day (D0), mice were inoculated intraperitoneally with 0.2 mL of infected blood containing about 1 × 10^6 parasitized erythrocytes. […] All mice groups were treated similarly for four consecutive days (D0–D3). Weight, parasitemia and survival were followed daily. To follow peripheral parasite density, thin blood smears were made daily from tail blood from D3 to D14. Blood smears were fixed with methanol and stained with a fast-acting variation of the May–Grünwald Giemsa staining (RAL 555 kit, RAL diagnostics). Average percentage chemosuppression was calculated at D8 for both infection models as ((A − B)/A) × 100 where A is the average percentage parasitemia in the negative control group and B is the average percentage parasitemia in the test group. Survival was monitored twice daily. The percentage survival was determined over a period of 21 days (D0–D20) and compared between groups.

[4] = Plasmodium falciparum, FCB1, 48 h, P. falciparum FcB1 (chloroquine-resistant strain), 48 h, read-out: IC50
[5] = 50 mg/kg intraperitoneal D0 to D3, D8
[6] = 50 mg/kg intraperitoneal D0 to D3

| radical production after reduction by NQO2 (NQO2) | ROS after NQO2 Reduction (NQO2; EPR, key not given) | IC50 [1, 4] [µM] | Structure (SMILES) | radical production after adding the specific NQO2 inhibitor S29434 (NQO2; EPR) | TI (Therapeutic Index = CC50/IC50) [1] | CC50 at 72 h [2] [µM] | further results |
| --- | --- | --- | --- | --- | --- | --- | --- |
| no radicals were detected |  | 0.63 to 0.85 | COc1ccc2c(c1)C1=C(C(=O)C2=O)C(C)(C)C(C)O1 (stereo not shown) [Compound 2] |  | 2.15 | 1.25 ± 0.16 | IC50 ([1]; P. falciparum FcB1 (chloroquine-resistant strain), 48 h, read-out: IC50): 0.58 ± 0.503 µM |
| produced radicals | + + + | 1.38 ± 0.627 | COc1ccc2c(c1)C(=O)C1=C(C2=O)C(C)(C)C(C)O1 (stereo not shown) [Compound 4] | decreased | 8.53 | 11.8 ± 2.2 | CC50 values fold higher than the IC50 value [1]: 8-9 fold |
| no radicals were detected |  | 1.52 ± 0.853 | COc1ccc2c(c1)C(=O)C1=C(OC(C)C1(C)C)C2=O (stereo not shown) [Compound 5] |  | 9.81 | 14.9 ± 3.23 | CC50 values fold higher than the IC50 value [1]: 8-9 fold |
| produced radicals | + + + | 19.5 ± 7.09 | COc1ccc2c(c1)C(=O)C1=C(OC(C)(C)CC1)C2=O [Compound 6] |  | >0.94 | > 18.4 | ROS after Inhibition of NQO2 with S29434 (NQO2; EPR, as above plus S29434 30 µM, grades - to + +, key not given): + + |
| no radicals were detected |  | 0.753 ± 0.484 | COc1ccc2c(c1)C1=C(CCC(C)(C)O1)C(=O)C2=O [Compound 7] |  | 2.21 | 1.67 ± 0.368 |  |

Continued, molecule first:

| Structure (SMILES) | radical production after reduction by NQO2 (NQO2) | ROS after NQO2 Reduction (NQO2; EPR, key not given) | IC50 [1, 4] [µM] | radical production after adding the specific NQO2 inhibitor S29434 (NQO2; EPR) | TI (Therapeutic Index = CC50/IC50) [1] | CC50 at 72 h [2] [µM] | further results |
| --- | --- | --- | --- | --- | --- | --- | --- |
| CCN(CC)CCCC(C)Nc1ccnc2cc(Cl)ccc12 (stereo not shown) [Chloroquine, chloroquine, reference compound] |  |  |  |  |  |  | IC50 ([1]; Plasmodium falciparum, FCB1, 48 h): 0.000164 ± 5.5e-05 µM; % inhibition of parasite density at D8 (P. chabaudi chabaudi; chloroquine 10 mg/kg intraperitoneal D0 to D3, D8): 98.2% |
| COc1cccc2c1C1=C(C(=O)C2=O)C(C)(C)C(C)O1 (stereo not shown) [Compound 1] | produced radicals; also recorded: induced a production of ROS | + + | 0.633 ± 0.74 | decreased | 3.83 | 2.42 ± 0.905 | weight variation compared to the vehicle control group [3]: similar; mortality or major behavioral changes [3]: did not cause mortality or major behavioral changes; % inhibition of parasite density at D8 (P. chabaudi chabaudi; [5]): 74.8% and 90.6%; Pcc parasite density compared to DMSO treatment (P. chabaudi chabaudi): highly reduced; weight development at D11 after Pcc infection (P. chabaudi chabaudi): lost more weight than other groups; death after Pcc infection (P. chabaudi chabaudi): did not cause any death; effect on weight loss and parasitemia during PbA infection (P. berghei ANKA; [6]): did not limit either weight loss or parasitemia; superiority over DMSO (survival) (P. berghei ANKA; [6]): statistically significant until D15; survival rate on D10 (P. berghei ANKA): 80% |
| COc1ccc2c(c1)C(=O)C(=O)C1=C2OC(C)C1(C)C (stereo not shown) [Compound 3] | produced radicals; also recorded: induced a production of ROS | + + + | 0.845 ± 0.334 | decreased | 1.70 | 1.43 ± 0.314 | weight variation compared to the vehicle control group [3]: similar; mortality or major behavioral changes [3]: did not cause mortality or major behavioral changes; % inhibition of parasite density at D8 (P. chabaudi chabaudi; [5]): 90.6% and 74.8%; Pcc parasite density compared to DMSO treatment (P. chabaudi chabaudi): highly reduced; weight development at D11 after Pcc infection (P. chabaudi chabaudi): lost more weight than other groups; death after Pcc infection (P. chabaudi chabaudi): did not cause any death; efficacy on parasite density compared to the CQ treatment (P. chabaudi chabaudi; 50 mg/kg intraperitoneal vs CQ, D8): less effective; effect on weight loss and parasitemia during PbA infection (P. berghei ANKA; [6]): did not limit either weight loss or parasitemia; survival rate on D10 (P. berghei ANKA): 100% |
| COc1cccc2c1C(=O)c1c(O)c3c(c(O)c1C2=O)C[C@@](O)(C(=O)CO)C[C@@H]3O[C@H]1C[C@H](N)[C@H](O)[C@H](C)O1 [Doxorubicin, doxorubicin, reference compound] |  |  |  |  |  | 0.311 ± 0.478 |  |
| CC1=CC(=O)c2ccccc2C1=O [Menadione, menadione, reference compound] |  | + + + + + |  |  |  |  |  |
